Tests used:
Details in all cases: 25 nM protease, 10 µM peptide
trypsin-3 = target: T1, trypsin-3 (Homo sapiens, UniProt P35030); assay: Cleavage of peptides by purified trypsin-3, MALDI-TOF/TOF
T1 sequence (P35030 1-304): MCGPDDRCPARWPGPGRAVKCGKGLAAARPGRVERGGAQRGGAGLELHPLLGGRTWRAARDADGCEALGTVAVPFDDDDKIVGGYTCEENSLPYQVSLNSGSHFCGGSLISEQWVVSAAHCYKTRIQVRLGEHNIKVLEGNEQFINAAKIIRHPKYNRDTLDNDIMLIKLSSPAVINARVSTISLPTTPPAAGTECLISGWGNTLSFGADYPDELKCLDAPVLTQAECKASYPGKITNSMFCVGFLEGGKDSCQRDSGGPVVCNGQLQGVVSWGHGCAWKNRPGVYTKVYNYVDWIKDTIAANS
Excerpt: (§1) Trypsin-like proteases included in the experiments are trypsin-1, -2 and -3, tryptase (Enzo LifeSciences), thrombin (Sigma-Aldrich) and cathepsin G (Sigma-Aldrich). Trypsin-1, -2 and -3 were produced as described by Koistinen et al. and Wu et al.. Two elastase-like enzymes, neutrophil elastase (Enzo LifeSciences, Farmingdale, NY, USA) and pancreatic elastase I (Sigma-Aldrich) were included as well. All enzymes were from human origin except for pancreatic elastase from porcine pancreas.
(§2) Reaction mixtures with purified enzymes were compiled in an identical way. Each mixture contained an equimolar concentration of protease (25 nM based on) and 10 µM peptide of interest and was incubated for 2, 5, 10 and 30 min at 37 °C. Substance P was added as the standard peptide except for the reaction mixtures with substance P or bradykinin as the peptide of interest, where angiotensin II (Bachem) was added.
(§3) The TFA mixtures were thawed on ice and desalted using C18 zip-tips (Merck Millipore®, Burlington, MA, USA) with a capacity of 5 µg protein. Retained peptide fragments were eluted directly on the MALDI target plate. Next, 0.5 µL of a 2.5 mg/mL α-cyano-4-hydroxycinnamic acid (Sigma-Aldrich) matrix solution (in 70% acetonitrile, 0.1% TFA) was spotted on top of the sample. A 6-Peptide mixture Kit (AB Sciex, Framingham, MA, USA) containing bradykinin (2–9), angiotensin I, glu1-fibrinopeptide, ACTH (1–17), ACTH (18–39) and ACTH (7–38) was diluted with matrix and spotted on the plate as well.
(§4) MS and MS/MS data for peptide fragment identification were obtained with a MALDI-TOF/TOF instrument (4800 MALDI TOF/TOF™, Applied Biosystems, Waltham, MA, USA) and instrument parameters were set using 4000 Series Explorer™ software. MS spectra were recorded in positive reflector mode in a mass range from 500 to 4000 Da and laser intensity of 4500–4800 Hz. The spectra were calibrated using the calibration mixture mentioned above to a mass tolerance of 0.1 Da. MS/MS spectra were recorded with high-energy collision-induced dissociation and the laser intensity was increased by 10%. Precursor mass m/z 1570.65 (Glu1-Fibrinopeptide from the calibration mixture) was used to calibrate the MS/MS spectra to a mass tolerance of 0.1 Da.
(§5) MS and MS/MS spectra were processed using DataExplorer™ software and the obtained output files were uploaded in the MS-PEP data analyzer (https://bioit.shinyapps.io/PARs/ accessed 10/08/2020) for peptide fragment identification. Identified fragments were confirmed using the MS/MS spectra and mMass 5.5.0 by Martin Strohalm. The relative intensities of the fragments were calculated as the ratio of the intensity of the peak of interest to the intensity of the peak of the standard peptide.

tryptase = tryptase (Homo sapiens, UniProt Q15661); assay: Cleavage of peptides by purified tryptase, MALDI-TOF/TOF
Excerpt: as §1, §2, §3, §4, §5

trypsin-1 = trypsin-1 (Homo sapiens, UniProt P07477); assay: Cleavage of peptides by purified trypsin-1, MALDI-TOF/TOF
Excerpt: as §1, §2, §3, §4, §5

neutrophil elastase = target: T2, neutrophil elastase (Homo sapiens, UniProt P08246); assay: Cleavage of peptides by purified neutrophil elastase, MALDI-TOF/TOF
T2 sequence (P08246 30-267): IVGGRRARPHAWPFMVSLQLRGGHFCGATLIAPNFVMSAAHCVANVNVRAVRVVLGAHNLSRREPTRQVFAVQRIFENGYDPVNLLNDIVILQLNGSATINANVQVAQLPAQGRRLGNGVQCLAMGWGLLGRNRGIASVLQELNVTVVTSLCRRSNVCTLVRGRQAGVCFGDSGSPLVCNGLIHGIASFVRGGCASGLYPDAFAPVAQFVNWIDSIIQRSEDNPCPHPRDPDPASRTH
Excerpt: as §1
Reaction mixtures with purified enzymes were compiled in an identical way. […] Substance P was added as the standard peptide except for the reaction mixtures with substance P or bradykinin as the peptide of interest, where angiotensin II (Bachem) was added.
as §3
as §4, with “10%.” for “10%. Precursor mass m/z 1570.65 (Glu1-Fibrinopeptide from the calibration mixture) was used to calibrate the MS/MS spectra to a mass tolerance of 0.1 Da.”
Identified fragments were confirmed using the MS/MS spectra and mMass 5.5.0 by Martin Strohalm. The relative intensities of the fragments were calculated as the ratio of the intensity of the peak of interest to the intensity of the peak of the standard peptide.

trypsin-2 = trypsin-2 (Homo sapiens, UniProt P07478); assay: Cleavage of peptides by purified trypsin-2, MALDI-TOF/TOF
Excerpt: as §1, §2, §3, §4, §5

thrombin = thrombin (Homo sapiens, UniProt P00734); assay: Cleavage of peptides by purified thrombin, MALDI-TOF/TOF
Excerpt: as §1, §2, §3, §4, §5

[1] = 37 °C, 2, 5, 10 and 30 min, stopped with 2% TFA
[2] = 37 °C, time points 2, 5, 10, 30 min

Chain of trypsin-2 (P07478 24-247): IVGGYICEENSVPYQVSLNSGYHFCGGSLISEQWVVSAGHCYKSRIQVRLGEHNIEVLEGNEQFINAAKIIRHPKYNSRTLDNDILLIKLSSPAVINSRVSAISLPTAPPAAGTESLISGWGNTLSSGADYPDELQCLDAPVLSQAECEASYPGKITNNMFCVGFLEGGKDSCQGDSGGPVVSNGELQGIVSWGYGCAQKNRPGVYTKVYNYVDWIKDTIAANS
Chain of tryptase (Q15661 31-275): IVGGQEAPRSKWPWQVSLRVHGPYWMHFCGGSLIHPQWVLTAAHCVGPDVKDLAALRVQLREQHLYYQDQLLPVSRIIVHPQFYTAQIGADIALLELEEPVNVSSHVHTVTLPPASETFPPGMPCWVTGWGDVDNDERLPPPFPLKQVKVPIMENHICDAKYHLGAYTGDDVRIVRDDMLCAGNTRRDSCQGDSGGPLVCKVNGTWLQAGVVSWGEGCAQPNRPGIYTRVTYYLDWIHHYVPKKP

CC[C@H](C)[C@H](NC(=O)[C@H](C)NC(=O)[C@H](CC(N)=O)NC(=O)[C@H](CCCCN)NC(=O)[C@H](Cc1ccccc1)NC(=O)[C@H](CC(C)C)NC(=O)[C@@H](NC(=O)[C@@H](NC(=O)[C@H](CC(C)C)NC(=O)[C@@H]1CCCN1C(=O)[C@@H](NC(=O)[C@H](CCC(N)=O)NC(=O)[C@H](CO)NC(=O)[C@H](CCCCN)NC(=O)[C@H](CCC(=O)O)NC(=O)[C@H](CO)NC(=O)[C@@H](NC(=O)[C@H](CCSC)NC(=O)[C@H](Cc1ccccc1)NC(=O)CNC(=O)CNC(=O)[C@@H](N)Cc1ccc(O)cc1)[C@@H](C)O)[C@@H](C)O)C(C)C)[C@@H](C)O)C(=O)N[C@H](C(=O)N[C@@H](CCCCN)C(=O)N[C@@H](CC(N)=O)C(=O)N[C@@H](C)C(=O)N[C@@H](Cc1ccc(O)cc1)C(=O)N[C@@H](CCCCN)C(=O)N[C@@H](CCCCN)C(=O)NCC(=O)N[C@@H](CCC(=O)O)C(=O)O)[C@@H](C)CC [β-endorphin]
Efficiency of the first cleavage in the peptide, Trypsin-3 (trypsin-3; [1]): −
Incubation time at which the first cleavage or decrease of the full-length peptide was observed, trypsin-3 (trypsin-3; [2]): > 30 min
Efficiency of the first cleavage in the peptide, Tryptase (tryptase; [1]): +++ (ultrafast processing within 2 min)
Incubation time at which the first cleavage or decrease of the full-length peptide was observed, tryptase (tryptase; [2]): 2 min
Efficiency of the first cleavage in the peptide, Trypsin-1 (trypsin-1; [1]): +++ (ultrafast processing within 2 min)
Incubation time at which the first cleavage or decrease of the full-length peptide was observed, trypsin-1 (trypsin-1; [2]): 2 min
Efficiency of the first cleavage in the peptide, Neutrophil Elastase (neutrophil elastase; [1]): +++ (ultrafast processing within 2 min)
Incubation time at which the first cleavage or decrease of the full-length peptide was observed, neutrophil elastase (neutrophil elastase; [2]): 2 min
Efficiency of the first cleavage in the peptide, Trypsin-2 (trypsin-2; [1]): +++ (ultrafast processing within 2 min)
Incubation time at which the first cleavage or decrease of the full-length peptide was observed, trypsin-2 (trypsin-2; [2]): 2 min
Efficiency of the first cleavage in the peptide, Thrombin (thrombin; [1]): −
Incubation time at which the first cleavage or decrease of the full-length peptide was observed, thrombin (thrombin; [2]): > 30 min

From PMC8509398, “Proteolytic Cleavage of Bioactive Peptides and Protease-Activated Receptors in Acute and Post-Colitis” (International Journal of Molecular Sciences, 2021)
